The text below walks through data of patent publication US20230174484A1, “ANTAGONISTS OF GPR39 PROTEIN” (Oregon Health & Science University, priority 2020, published 2023).

Assay [1] concerns spontaneously hypertensive rat (SHR). The experiment in a line: Acute intravenous effect on blood pressure in the spontaneously hypertensive rat. It is filed as in vivo. As to conditions: for BP reduction, percentage of pre-administration baseline: lowest value over 10 min, isoflurane anaesthesia. How it is done: Decrease in BP was expressed as a percentage of baseline BP (*p<0.05).
The effect of acute intravenous administration of EXAMPLE 34 on BP in the spontaneously hypertensive rat (SHR) was determined. […] At 10 mg/kg, BP was reduced by 15%, and at 25 mg/kg, the reduction exceeded 20% of pre-administration baseline. EXAMPLE 34 was administered slowly via bolus injections through the jugular vein in a vehicle consisting of 100% PEG 400, and the change in BP after administration (lowest value over 10 min) was normalized to pre-administration baseline. This was the first proof of principle that pharmacological inhibition of GPR39 reduced BP acutely in a well-established animal model of hypertension.

Assay [2] relates to wild-type mice, left coronary artery occlusion/reperfusion. The experiment in a line: No reflow after coronary occlusion and reperfusion in mice (Thioflavin S / Evans Blue). Type of assay: in vivo, mouse. The settings on record: WT mice, 1.5 mg/kg i.v. 15 min after occlusion, 45 min occlusion, 2 hr reperfusion, versus vehicle. The method, then: FIGS. 4A-4D depict no reflow data from WT, GPR39 KO, and EXAMPLE 34 mice. Thioflavin-S and Evans Blue were injected ante-mortem and measurement of no reflow (area without Evans Blue on the right panel). […] EXAMPLE 34 was given 15 min after coronary occlusion which lasted a total of 45 min followed by 2 hour reperfusion. The role of pericytes was examined in no reflow after reperfusion in a separate group of animals since infarct size and no reflow post-mortem cciuid not be measured in the same animals, Thioflavin S, a perfusion marker, was injected into the left coronary artery after reperfusion. Thereafter, the left coronary artery was briefly re-occluded and 0.2 ml Evan's blue (1%) injected. The heart was then excised, transversely sliced into 5-6 pieces and photographed under UV light (under which Thioflavin S fluoresces blue) to identify the area of no reflow and under standard lighting to identify the AAR, and the no reflow zone expressed as a percent of the AAR.

Assay [3] shares this test system. In words: Infarct size after left coronary artery occlusion and reperfusion in mice. As to conditions: WT mice, single dose 15 min after occlusion, 45 min occlusion, 2 hr reperfusion, versus vehicle. It is filed as in vivo, mouse. The method, then:
FIG. 3A depicts the timeline of experimental design. EXAMPLE 34 was given 15 min after left coronary occlusion as a single dose during a 45 min occlusion followed by 2 hr of reperfusion.
Infarct size in both FIG. 3C and FIG. 3D is expressed as a percent of AAR defined by Evans Blue. Summary data are depicted to the right of actual images from single representative animals.
The role of pericytes in tissue necrosis following coronary occlusion was examined (FIG. 3A).

Another assay addresses T1, human GPR39 receptor (Homo sapiens, UniProt O43194).
T1 construct: PC3 Cells, Expressing the Endogenous Human GPR39 Receptor; endogenous in cells; host or cells: PC3 (human prostate adenocarcinoma) cells
T1 sequence (O43194 1-453): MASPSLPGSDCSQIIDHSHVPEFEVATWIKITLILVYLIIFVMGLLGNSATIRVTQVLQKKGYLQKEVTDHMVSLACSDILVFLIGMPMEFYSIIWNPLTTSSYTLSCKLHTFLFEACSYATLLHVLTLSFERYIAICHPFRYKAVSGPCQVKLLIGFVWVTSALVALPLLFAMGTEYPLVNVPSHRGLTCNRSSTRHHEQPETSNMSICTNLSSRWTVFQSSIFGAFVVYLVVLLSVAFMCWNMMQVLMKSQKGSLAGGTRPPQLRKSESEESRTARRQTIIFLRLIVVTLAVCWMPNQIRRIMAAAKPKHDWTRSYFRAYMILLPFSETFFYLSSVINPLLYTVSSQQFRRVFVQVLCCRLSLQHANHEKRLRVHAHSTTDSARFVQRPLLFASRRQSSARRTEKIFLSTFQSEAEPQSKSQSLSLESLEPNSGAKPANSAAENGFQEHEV
The experiment in a line: Measurement of intracellular calcium response in PC3 cells (FLIPR), antagonism of the C3 agonist response. Type of assay: cell-based. The settings on record: functional pKi (modified Cheng-Prusoff), inhibition of the C3 (TC-G 1008) response at EC90, 30 μM ZnCl2, read-out: fpKi activity. In outline: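 PC3 cells with endogenous human GPR39 were loaded with Calcium-6 and read by FLIPR, with compounds tested in buffer with 30 μM final ZnCl2 and 0.32% DMSO. Peak Ca2+ signal was scored as % inhibition of the EC90 C3 response, fitted by four-parameter logistic. Functional pKi was derived via the modified Cheng-Prusoff equation.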

“Also recorded” adds a separate entry of the source.

Consider `O=C(Nc1ccc(C(=O)N2CCN(c3ncnc4ccsc34)CC2)c(N2CCCCCC2)c1)C1CC1` [EXAMPLE 34, N-[3-(azepan-1-yl)-4-(4-thieno[3,2-d]pyrimidin-4-ylpiperazine-1-carbonyl)phenyl]Cyclopropanecarboxamide], for which the “BP reduction, percentage of pre-administration baseline” value in assay [1] (10 mg/kg i.v. bolus) is given as 15%; in assay [1] (25 mg/kg i.v. bolus), “exceeded 20%”. The “Effect on BP in SHR” value in assay [1] (i.v., concentrations higher than 10 mg/kg) is listed as “significantly reduced BP”. Besides, in assay [2], the “No reflow zone / AAR ratio” value was “negligible no reflow zones; also recorded: significant reduction in no reflow/AAR ratio”. In assay [3], the “Infarct size/area at risk (AAR) ratio” value is given as “significantly smaller; also recorded: significant reduction in infarct size”. In addition, the Ki at human GPR39 receptor lay within 1260 to 6310 nM.
Regarding `CC1CCN(c2cc(NC(=O)C3CC3)ccc2C(=O)N2CCC(C(F)(F)F)CC2)C1` (single isomer, unassigned) [Example 63a, (N-[3-(3R or 3S-methylpyrrolidin-l-yl)-4-[4-(trifluoromethyl)piperidine-1-carbonyl]phenyl]cyclopropanecarboxamide], the Ki at human GPR39 receptor was no more than 50.1 nM.
For the molecule `CN1CCN(C(=O)c2ccc(NC(=O)C3CC3)cc2N2CCCC2)C(c2cncc(Cl)c2)C1` (racemic) [Example 172, N-[4-[2-(5-chloropyridin-3-yl)-4-methylpiperazine-1-carbonyl]-3-pyrrolidin-1ylphenyl]cyclopropanecarboxamide], the Ki at human GPR39 receptor was 63.1 to 251 nM.
Consider `CN1CCN(C(=O)c2ccc(NC(=O)C3CC3)cc2N2CCCC2)C(c2cccc(Cl)c2)C1` (single isomer, unassigned) [Example 171b, (2R or 2S) N-[4-[2-(3-chlorophenyl)-4-methylpiperazine-1-carbonyl]-3-pyrrolidin-1-ylphenyl] cyclopropanecarboxamide], for which the Ki on human GPR39 receptor is no more than 50.1 nM.
As for `O=C(c1ccc(-c2nnc(C3CC3)[nH]2)cc1N1CCCC1)N1CCC(C(F)(F)F)CC1` [Example 154], the Ki at human GPR39 receptor lay within 63.1 to 251 nM.
In the case of `O=C(Nc1ccc(C(=O)N2CCC3(CC2)COC3)c(N2CCCC2)c1)C1CC1` [Example 219, N-[4-(2-oxa-7-azaspiro[3.5]nonane-7-carbonyl)-3-pyrrolidin-1-ylphenyl]cyclopropanecarboxamide], at human GPR39 receptor, the Ki was in the range of 63.1 to 251 nM.
Regarding `O=C(Nc1ccc(C(=O)N2CCN(c3ccncc3)CC2)c(N2CCCCCC2)c1)C1CC1` [Example 57, N-[3-(azepan-1-yl)-4-(4-pyridin-4-ylpiperazine-1-carbonyl)phenyl]cyclopropanecarboxamide], the Ki on human GPR39 receptor was 1260 to 6310 nM.
As to `O=C(Nc1ccc(C(=O)N2CCC3(CC2)COC3)c(N2CCC(C(F)(F)F)C2)c1)C1CC1` (racemic) [Example 213c, N-[4-(2-oxa-7-azaspiro[3.5]nonane-7-carbonyl)-3-[3-(trifluoromethyl)pyrrolidin-1-yl]phenyl]cyclopropanecarboxamide], on human GPR39 receptor, the Ki is 63.1 to 251 nM.
Still for that read-out and setting: the figure for `O=C(Nc1ccc(C(=O)N2CC[S+]([O-])CC2c2ccccc2)c(N2CCCC2)c1)C1CC1` (racemic) [Example 169, N-[4-(1-oxo-3-phenyl-1,4-thiazinane-4-carbonyl)-3-pyrrolidin-1-ylphenyl]cyclopropanecarboxamide] is 1260 to 6310 nM; for `CN1CCN(C(=O)c2ccc(NC(=O)C3CC3)nc2N2CCC(F)(F)C2)C(c2ccccc2)C1` (single isomer, unassigned) [Example 148a, (2R or 2S) N-[6-(3,3-difluoropyrrolidin-1-yl)-5-(4-methyl-2-phenylpiperazine-1-carbonyl)pyridin-2-yl]cyclopropanecarboxamide] it is 63.1 to 251 nM.
Turning to `O=C(Nc1ccc(C(=O)N2CCS(=O)(=O)CC2)c(N2CCC(F)(F)CC2)c1)C1CC1` [Example 196, N-[3-(4,4-difluoropiperidin-1-yl)-4-(1,1-dioxo-1,4-thiazinane-4-carbonyl)phenyl]cyclopropanecarboxamide], the Ki on human GPR39 receptor was in the range of 1260 to 6310 nM.
With `O=C(Nc1ccc(C(=O)N2CCS(=O)(=O)CC2)c(N2CCCC(C(F)(F)F)C2)c1)C1CC1` (single isomer, unassigned) [Example 185a, N-[4-(1,1-dioxo-1,4-thiazinane-4-carbonyl)-3-[3R or 3S-(trifluoromethyl)piperidin-1-yl]phenyl]cyclopropanecarboxamide], the Ki on human GPR39 receptor was 63.1 to 251 nM.
On to `CCCN1CCN(C(=O)c2ccc(NC(=O)c3ccccc3)cc2N2CCCCCC2)CC1` [Example 91, N-(3-(azepan-1-yl)-4-(4-propylpiperazine-1-carbonyl)phenyl)benzamide], for which the Ki at human GPR39 receptor fell in the range of 1260 to 6310 nM.
Still for that read-out and setting: the figure for `O=C(Nc1ccc(C(=O)N2CCN(Cc3cccnc3)CC2)c(N2CCCCCC2)c1)C1CC1` [Example 32, N-(3-(azepan-1-yl)-4-(4-(pyridin-3-ylmethyl)piperazine-1-carbonyl)phenyl)cyclopropanecarboxamide] is 316 to 1000 nM; for `Cc1nnc(-c2ccc(C(=O)N3CCN(C)CC3c3ccccc3)c(N3CCC(C(F)(F)F)C3)c2)[nH]1` (single isomer, unassigned) [Example 177b, (2S, 3R) or (2R, 3S) or (2R, 3R) or (2S, 3S) (4-methyl-2-phenylpiperazin-1-yl)-[4-(5-methyl-4H-1,2,4-triazol-3-yl)-2-[3-(trifluoromethyl)pyrrolidin-1-yl]phenyl]methanone] it is 316 to 1000 nM.
